Measurements: ChEMBL document CHEMBL1138695, “Synthesis of stavudine amino acid ester prodrugs with broad-spectrum chemotherapeutic properties for the effective treatment of HIV/AIDS” (Bioorg Med Chem Lett, 2004)
pEC50: −log10 of the molar value. Values after ≈ are worked out from the molar mass of the structure shown.

Columns and labels:
[1] = tested on: Mycobacterium tuberculosis; test: Antimycobacterial activity against Mycobacterium tuberculosis strain H37Rv; format: functional; set-up: concentration or dose not given beside the values
CCRF-CEM [2] = test: Cytotoxic concentration of compound required to reduce the viability of mock infected CEM cells by 50%; format: functional; settings: Homo sapiens
CCRF-CEM [3] = test: Effective concentration of compound achieving 50% protection in CEM cell lines against the cytopathic effect of HIV-1; format: functional, cell-based; settings: Homo sapiens
[4] = Selectivity index expressed as the ratio of CC50 to EC50; format: functional
Salmonella paratyphi = test: Antibacterial activity against Salmonella paratyphi A; format: functional, Salmonella enterica subsp. enterica serovar Paratyphi A; settings: Salmonella enterica
Shigella boydii = test: Antibacterial activity against Shigella boydii; format: functional
Vibrio cholerae [5] = test: Antibacterial activity against Vibrio cholerae 0139; format: functional
Enterobacter = test: Antibacterial activity against Enterobacter; format: functional
Salmonella typhi = test: Antibacterial activity against […] Salmonella typhi; format: functional, Salmonella enterica subsp. enterica serovar Typhi; settings: Salmonella enterica
Vibrio mimicus = test: Antibacterial activity against Vibrio mimicus; format: functional
Priestia megaterium = test: Antibacterial activity against Bacillus megatherium; format: functional
Shigella sonnei = test: Antibacterial activity against Shigella sonnei; format: functional
Vibrio fluvialis = test: Antibacterial activity against Vibrio fluvialis; format: functional
Citrobacter freundii = test: Antibacterial activity against Citrobacter ferundii; format: functional
Klebsiella pneumoniae [6] = test: Antibacterial activity against Klebsiella ozaenae; format: functional; settings: subsp. ozaenae
Proteus mirabilis = test: Antibacterial activity against Proteus mirabilis; format: functional
Vibrio cholerae [7] = test: Antibacterial activity against Vibrio cholerae 01; format: functional
Plesiomonas shigelloides = test: Antibacterial activity against Plesiomonas shigelloides; format: functional
Edwardsiella tarda = test: Antibacterial activity against Edwardsiella tarda; format: functional
Pseudomonas aeruginosa = test: Antibacterial activity against Pseudomonas aeruginosa; format: functional
Staphylococcus aureus = test: Antibacterial activity against Staphylococcus aureus; format: functional
Escherichia coli = test: Antibacterial activity against Escherichia coli NCTC 10418; format: functional
Klebsiella pneumoniae [8] = test: Antibacterial activity against Klebsiella pneumoniae; format: functional
Salmonella enteritidis = test: Antibacterial activity against Salmonella enteritidis; format: functional, Salmonella enterica subsp. enterica serovar Enteritidis; settings: Salmonella enterica
Morganella morganii = test: Antibacterial activity against Morganella morganii; format: functional
Proteus vulgaris = test: Antibacterial activity against Proteus vulgaris; format: functional
Vibrio parahaemolyticus = test: Antibacterial activity against Vibrio parahaemolyticus; format: functional
Salmonella typhimurium = test: Antibacterial activity against Salmonella Typhimurium; format: functional, Salmonella enterica subsp. enterica serovar Typhimurium; settings: Salmonella enterica
[9] = In vitro hydrolysis in human plasma; format: ADME, cell-free

Compound | CC50 (CCRF-CEM [2]) | pEC50 (CCRF-CEM [3]) | Selectivity index [4] | MIC (Shigella boydii) | MIC (Vibrio cholerae [5]) | MIC (Enterobacter) | MIC (Vibrio mimicus) | MIC (Priestia megaterium) | MIC (Shigella sonnei) | MIC (Vibrio fluvialis) | MIC (Citrobacter freundii) | MIC (Klebsiella pneumoniae [6]) | MIC (Proteus mirabilis) | MIC (Vibrio cholerae [7]) | MIC (Plesiomonas shigelloides) | MIC (Edwardsiella tarda) | MIC (Pseudomonas aeruginosa) | MIC (Staphylococcus aureus) | MIC (Escherichia coli) | MIC (Klebsiella pneumoniae [8]) | further results
Cc1cn([C@H]2C=C[C@@H](CO)O2)c(=O)[nH]c1=O [STAVUDINE] | > 100 µM | 7.05 | > 1110 |  |  |  |  |  |  |  |  |  |  |  |  |  |  |  |  |  | Inhibition [1]: 0%
O=C(O)c1cn(C2CC2)c2cc(N3CCNCC3)c(F)cc2c1=O [CIPROFLOXACIN] |  |  |  | 0.0095 µg/mL (≈ 0.0287 µM) | 0.0095 µg/mL (≈ 0.0287 µM) | 0.019 µg/mL (≈ 0.0573 µM) | 0.0095 µg/mL (≈ 0.0287 µM) | 0.0095 µg/mL (≈ 0.0287 µM) | 0.0095 µg/mL (≈ 0.0287 µM) | 0.0095 µg/mL (≈ 0.0287 µM) | 0.0095 µg/mL (≈ 0.0287 µM) | 0.0381 µg/mL (≈ 0.115 µM) | 0.0095 µg/mL (≈ 0.0287 µM) | 0.0095 µg/mL (≈ 0.0287 µM) | 0.019 µg/mL (≈ 0.0573 µM) | 0.0095 µg/mL (≈ 0.0287 µM) | 0.0381 µg/mL (≈ 0.115 µM) | 0.0095 µg/mL (≈ 0.0287 µM) | 0.019 µg/mL (≈ 0.0573 µM) | 0.0095 µg/mL (≈ 0.0287 µM) | MIC (Salmonella paratyphi): 0.019 µg/mL (≈ 0.0573 µM); MIC (Salmonella typhi): 0.019 µg/mL (≈ 0.0573 µM); MIC (Salmonella enteritidis): 0.0095 µg/mL (≈ 0.0287 µM); MIC (Morganella morganii): 0.0095 µg/mL (≈ 0.0287 µM); MIC (Proteus vulgaris): 0.019 µg/mL (≈ 0.0573 µM); MIC (Vibrio parahaemolyticus): 0.0095 µg/mL (≈ 0.0287 µM); MIC (Salmonella typhimurium): 0.0095 µg/mL (≈ 0.0287 µM)
Cc1cn(C2C=CC(COC(=O)CN(C)C)O2)c(=O)[nH]c1=O (stereo unspecified) | 456 µM | 6.46 | 1330 |  |  |  |  |  |  |  |  |  |  |  |  |  |  |  |  |  | half-life [9]: 0.5 h
Cc1cn(C2C=CC(COC(=O)CNC(=O)c3ccncn3)O2)c(=O)[nH]c1=O (stereo unspecified) | 567 µM | 6.28 | 1090 | 312 µg/mL (≈ 807 µM) | 1250 µg/mL (≈ 3230 µM) | 39.1 µg/mL (≈ 101 µM) | 78.1 µg/mL (≈ 202 µM) | 39.1 µg/mL (≈ 101 µM) | 312 µg/mL (≈ 807 µM) | 1250 µg/mL (≈ 3230 µM) | 1250 µg/mL (≈ 3230 µM) | 1250 µg/mL (≈ 3230 µM) | 1250 µg/mL (≈ 3230 µM) | 1250 µg/mL (≈ 3230 µM) | 312 µg/mL (≈ 807 µM) | 1250 µg/mL (≈ 3230 µM) | 1250 µg/mL (≈ 3230 µM) | 1250 µg/mL (≈ 3230 µM) | 1250 µg/mL (≈ 3230 µM) | 1250 µg/mL (≈ 3230 µM) | half-life [9]: 1 h; Inhibition [1]: 0%; MIC (Salmonella enteritidis): 1250 µg/mL (≈ 3230 µM); MIC (Morganella morganii): 312 µg/mL (≈ 807 µM); MIC (Proteus vulgaris): 1250 µg/mL (≈ 3230 µM); MIC (Vibrio parahaemolyticus): 1250 µg/mL (≈ 3230 µM); MIC (Salmonella typhimurium): 1250 µg/mL (≈ 3230 µM)
Cc1cn(C2C=CC(COC(=O)CN3CCNCC3)O2)c(=O)[nH]c1=O (stereo unspecified) | > 1000 µM | > 7.20 | > 15700 |  |  |  |  |  |  |  |  |  |  |  |  |  |  |  |  |  | half-life [9]: 0.333 h
Cc1cn(C2C=CC(COC(=O)CN3CCN(c4cc5c(cc4F)c(=O)c(C(=O)O)cn5C4CC4)CC3)O2)c(=O)[nH]c1=O (stereo unspecified) | 695 µM | 4.21 | 11.2 | 0.61 µg/mL (≈ 1.02 µM) | 0.61 µg/mL (≈ 1.02 µM) | 0.3 µg/mL (≈ 0.504 µM) | 0.3 µg/mL (≈ 0.504 µM) | 0.3 µg/mL (≈ 0.504 µM) | 4.88 µg/mL (≈ 8.19 µM) | 0.61 µg/mL (≈ 1.02 µM) | 0.61 µg/mL (≈ 1.02 µM) | 1.22 µg/mL (≈ 2.05 µM) | 0.3 µg/mL (≈ 0.504 µM) | 0.3 µg/mL (≈ 0.504 µM) | 0.61 µg/mL (≈ 1.02 µM) | 4.88 µg/mL (≈ 8.19 µM) | 1.22 µg/mL (≈ 2.05 µM) | 4.88 µg/mL (≈ 8.19 µM) | 0.3 µg/mL (≈ 0.504 µM) | 1.22 µg/mL (≈ 2.05 µM) | half-life [9]: 4 h; Inhibition [1]: 100%; MIC (Salmonella enteritidis): 0.61 µg/mL (≈ 1.02 µM); MIC (Morganella morganii): 0.61 µg/mL (≈ 1.02 µM); MIC (Proteus vulgaris): 4.88 µg/mL (≈ 8.19 µM); MIC (Vibrio parahaemolyticus): 0.3 µg/mL (≈ 0.504 µM); MIC (Salmonella typhimurium): 0.3 µg/mL (≈ 0.504 µM)
CCn1cc(C(=O)O)c(=O)c2cc(F)c(N3CCNCC3)cc21 [NORFLOXACIN] |  |  |  | 0.0381 µg/mL (≈ 0.119 µM) | 0.0763 µg/mL (≈ 0.239 µM) | 0.0763 µg/mL (≈ 0.239 µM) | 0.153 µg/mL (≈ 0.478 µM) | 0.0763 µg/mL (≈ 0.239 µM) | 0.0381 µg/mL (≈ 0.119 µM) | 0.0763 µg/mL (≈ 0.239 µM) | 0.0381 µg/mL (≈ 0.119 µM) | 0.0381 µg/mL (≈ 0.119 µM) | 0.0763 µg/mL (≈ 0.239 µM) | 0.0763 µg/mL (≈ 0.239 µM) | 0.0763 µg/mL (≈ 0.239 µM) | 0.0381 µg/mL (≈ 0.119 µM) | 0.0763 µg/mL (≈ 0.239 µM) | 0.153 µg/mL (≈ 0.478 µM) | 0.0381 µg/mL (≈ 0.119 µM) | 0.0381 µg/mL (≈ 0.119 µM) | MIC (Salmonella paratyphi): 0.0381 µg/mL (≈ 0.119 µM); MIC (Salmonella typhi): 0.0763 µg/mL (≈ 0.239 µM); MIC (Salmonella enteritidis): 0.0381 µg/mL (≈ 0.119 µM); MIC (Morganella morganii): 0.0763 µg/mL (≈ 0.239 µM); MIC (Proteus vulgaris): 0.0381 µg/mL (≈ 0.119 µM); MIC (Vibrio parahaemolyticus): 0.0763 µg/mL (≈ 0.239 µM); MIC (Salmonella typhimurium): 0.0763 µg/mL (≈ 0.239 µM)
Cc1cn(C2C=CC(COC(=O)CNNC(=O)c3ccncc3)O2)c(=O)[nH]c1=O (stereo unspecified) | > 200 µM | 6.40 | > 497 | 4.88 µg/mL (≈ 12.2 µM) | 156 µg/mL (≈ 389 µM) | 312 µg/mL (≈ 779 µM) | 4.88 µg/mL (≈ 12.2 µM) | 2.44 µg/mL (≈ 6.08 µM) | 156 µg/mL (≈ 389 µM) | 1250 µg/mL (≈ 3110 µM) | 1250 µg/mL (≈ 3110 µM) | 9.76 µg/mL (≈ 24.3 µM) | 2.44 µg/mL (≈ 6.08 µM) | 1250 µg/mL (≈ 3110 µM) | 312 µg/mL (≈ 779 µM) | 156 µg/mL (≈ 389 µM) | 1250 µg/mL (≈ 3110 µM) | 156 µg/mL (≈ 389 µM) | 156 µg/mL (≈ 389 µM) | 1250 µg/mL (≈ 3110 µM) | MIC (Salmonella paratyphi): 9.77 µg/mL (≈ 24.3 µM); half-life [9]: 1 h; Inhibition [1]: 90%; MIC (Salmonella typhi): 156 µg/mL (≈ 389 µM); MIC (Salmonella enteritidis): 4.88 µg/mL (≈ 12.2 µM); MIC (Morganella morganii): 156 µg/mL (≈ 389 µM); MIC (Proteus vulgaris): 312 µg/mL (≈ 779 µM); MIC (Vibrio parahaemolyticus): 1250 µg/mL (≈ 3110 µM); MIC (Salmonella typhimurium): 1250 µg/mL (≈ 3110 µM)
CCn1cc(C(=O)O)c(=O)c2cc(F)c(N3CCN(CC(=O)OCC4C=CC(n5cc(C)c(=O)[nH]c5=O)O4)CC3)cc21 (stereo unspecified) | 210 µM | 4.00 | 2.1 | 0.61 µg/mL (≈ 1.05 µM) | 0.61 µg/mL (≈ 1.05 µM) | 0.3 µg/mL (≈ 0.514 µM) | 0.61 µg/mL (≈ 1.05 µM) | 0.3 µg/mL (≈ 0.514 µM) | 9.76 µg/mL (≈ 16.7 µM) | 9.76 µg/mL (≈ 16.7 µM) | 2.44 µg/mL (≈ 4.18 µM) | 1.22 µg/mL (≈ 2.09 µM) | 1.22 µg/mL (≈ 2.09 µM) | 0.61 µg/mL (≈ 1.05 µM) | 9.76 µg/mL (≈ 16.7 µM) | 9.76 µg/mL (≈ 16.7 µM) | 1.22 µg/mL (≈ 2.09 µM) | 9.76 µg/mL (≈ 16.7 µM) | 1.22 µg/mL (≈ 2.09 µM) | 1.22 µg/mL (≈ 2.09 µM) | MIC (Salmonella paratyphi): 1.22 µg/mL (≈ 2.09 µM); half-life [9]: > 4 h; Inhibition [1]: 98%; MIC (Salmonella enteritidis): 9.76 µg/mL (≈ 16.7 µM); MIC (Morganella morganii): 9.76 µg/mL (≈ 16.7 µM); MIC (Proteus vulgaris): 9.76 µg/mL (≈ 16.7 µM); MIC (Vibrio parahaemolyticus): 1.22 µg/mL (≈ 2.09 µM); MIC (Salmonella typhimurium): 9.76 µg/mL (≈ 16.7 µM)
